Assay results: patent US7968595B2, “Substituted 4-aryl-chromene as activator of caspases and inducer of apoptosis and as antivascular agent and the use thereof” (Cytovia, Inc., priority 2006, dated 2011)

What was measured:
Type in all cases: cell-based
[1] = tested on: SNU398; test: Inhibition of cell proliferation (GI50), SNU398; conditions: Homo sapiens, SNU-398; Snu398 cells, 72 h, CellTiter-Glo
Procedure: (§1) Human breast cancer cells MX-1 and MDAMB435, hepatocarcinoma cells SNU398, colon cancer cells HCT116 and HeLa cells were grown and harvested as in Example 7. An aliquot of […] of cells (4.4×10^4 cells/mL) was added to a well of a 96-well microtiter plate containing 5 μL of a 10% DMSO in RPMI-1640 media solution containing 10 nM to 100 μM of R(−)-2,7,8-triamino-4-(3-bromo-4,5-dimethoxy-phenyl)-3-cyano-4H-chromene (1 nM to 10 μM final). An aliquot of 45 μL of cells was added to a well of a 96-well microtiter plate containing 5 μL of a 10% DMSO in RPMI-1640 media solution without compound as the control sample for maximal cell proliferation (LMax). The samples were mixed by agitation and then incubated at 37° C. for 72 h in a 5% CO2−95% humidity incubator. After incubation, the samples were removed from the incubator and 25 μL of CellTiter-Glo™ reagent (Promega) was added. The samples were mixed by agitation and incubated at room temperature for 10-15 min. Plates were then read using a luminescent plate reader (Model SPECTRAfluor Plus, Tecan) to give Ltest values.
(§2) Baseline for GI50 (dose for 50% inhibition of cell proliferation) of initial cell numbers was determined by adding an aliquot of 45 μL of cells or 45 μL of media, respectively, to wells of a 96-well microtiter plate containing 5 μL of a 10% DMSO in RPMI-1640 media solution. […]

[2] = tested on: HCT116; test: Inhibition of cell proliferation (GI50), HCT116; conditions: Homo sapiens, HCT-116; HCT116 cells, 72 h, CellTiter-Glo
Procedure: as §1, §2

[3] = tested on: ZR-75-1; test: Caspase activation assay in ZR-75-1 cells; conditions: Homo sapiens, ZR751 cells, 24 h incubation, read-out: Caspase activation potency EC50 ZR751
Procedure: (§3) Human breast cancer cell lines T-47D and ZR-75-1, human colon cancer cell line DLD-1 and human non-small cell lung cancer cell line H1299 were grown according to media component mixtures designated by American Type Culture Collection+10% FCS (Invitrogen Corporation), in a 5% CO2−95% humidity incubator at 37° C. T-47D and ZR-75-1 cells were maintained at a cell density between 30 and 80% confluency at a cell density of 0.1 to 0.6×10^6 cells/mL. Cells were harvested at 600×g and resuspended at 0.65×10^6 cells/mL into appropriate media+10% FCS. An aliquot of […] of cells was added to a well of a 96-well microtiter plate containing 5 μl of a 10% DMSO in RPMI-1640 media solution containing about 0.16 to 10 μM of 2,7,8-triamino-4-(3-bromo-4,5-dimethoxy-phenyl)-3-cyano-4H-chromene (1) or other test compounds (0.016 to 1 μM final). An aliquot of 45 μl of cells was added to a well of a 96-well microtiter plate containing 5 μl of a 10% DMSO in RPMI-1640 media solution without test compound as the control sample. The samples were mixed by agitation and then incubated at 37° C. for 24 h in a 5% CO2−95% humidity incubator. […] Using a fluorescent plate reader (Model 1420 Wallac Instruments), an initial reading (T=0) was made about 1-2 min after addition of the substrate solution, employing excitation at 485 nm and emission at 530 nm, to determine the background fluorescence of the control sample. After the 3 h incubation, the samples were read for fluorescence as above (T=3 h).
(§4) The Relative Fluorescence Unit values (RFU) were used to calculate the sample readings as follows: RFU(T=3h)−Control RFU(T=0)=Net RFU(T=3h)
(§5) The activity of caspase cascade activation was determined by the ratio of the net RFU value for 2,7,8-triamino-4-(3-bromo-4,5-dimethoxy-phenyl)-3-cyano-4H-chromene or other test compound to that of control samples. The EC50 (nM) was determined by a sigmoidal dose-response calculation (Prism 2.0, GraphPad Software Inc.).

[4] = tested on: H1299; test: Caspase activation assay in H1299 cells; conditions: Homo sapiens, NCI-H1299, 24 h incubation, read-out: Caspase activation potency EC50 H1299
Procedure: (§6) Human breast cancer cell lines T-47D and ZR-75-1, human colon cancer cell line DLD-1 and human non-small cell lung cancer cell line H1299 were grown according to media component mixtures designated by American Type Culture Collection+10% FCS (Invitrogen Corporation), in a 5% CO2−95% humidity incubator at 37° C. T-47D and ZR-75-1 cells were maintained at a cell density between 30 and 80% confluency at a cell density of 0.1 to 0.6×10^6 cells/mL. Cells were harvested at 600×g and resuspended at 0.65×10^6 cells/mL into appropriate media+10% FCS. An aliquot of […] of cells was added to a well of a 96-well microtiter plate containing 5 μl of a 10% DMSO in RPMI-1640 media solution containing about 0.16 to 10 μM of 2,7,8-triamino-4-(3-bromo-4,5-dimethoxy-phenyl)-3-cyano-4H-chromene (1) or other test compounds (0.016 to 1 μM final). An aliquot of 45 μl of cells was added to a well of a 96-well microtiter plate containing 5 μl of a 10% DMSO in RPMI-1640 media solution without test compound as the control sample. The samples were mixed by agitation and then incubated at 37° C. for 24 h in a 5% CO2−95% humidity incubator. After incubation, the samples were removed from the incubator and 50 μl of a solution containing 20 μM of N-(Ac-DEVD)-N′-ethoxycarbonyl-R110 (SEQ ID No:1) fluorogenic substrate (Cytovia, Inc.; U.S. Pat. No. 6,335,429), 20% sucrose (Sigma), 20 mM DTT (Sigma), 200 mM NaCl (Sigma), 40 mM Na PIPES buffer pH 7.2 (Sigma), and 500 μg/ml lysolecithin (Calbiochem) was added. The samples were mixed by agitation and incubated at room temperature. Using a fluorescent plate reader (Model 1420 Wallac Instruments), an initial reading (T=0) was made about 1-2 min after addition of the substrate solution, employing excitation at 485 nm and emission at 530 nm, to determine the background fluorescence of the control sample. After the 3 h incubation, the samples were read for fluorescence as above (T=3 h).
as §4, §5

[5] = tested on: T-47D; test: Caspase activation assay in T-47D cells; conditions: Homo sapiens; T47D cells, 24 h incubation; read-out: Caspase activation potency EC50 T47D
Procedure: as §6, §4, §5

[6] = tested on: MX-1; test: Inhibition of cell proliferation (GI50), MX-1; conditions: Homo sapiens; MX1 cells, 72 h, CellTiter-Glo
Procedure: as §1, §2

[7] = tested on: HeLa cells; test: Inhibition of cell proliferation (GI50), HeLa; conditions: Homo sapiens, 72 h, CellTiter-Glo
Procedure: as §1, §2

[8] = tested on: DLD-1; test: Caspase activation assay in DLD-1 cells; conditions: Homo sapiens, 24 h incubation, read-out: Caspase activation potency EC50 DLD-1
Procedure: as §3, §4, §5

## COc1cc([C@H]2C(C#N)=C(N)Oc3c2ccc(N)c3N)cc(Br)c1OC [Compound 1R, R(−)-2,7,8-triamino-4-(3-bromo-4,5-dimethoxy-phenyl)-3-cyano-4H-chromene]
[1]
  GI50: 28 nM
[2]
  GI50: 19 nM
[3]
  EC50: 19 nM
[4]
  EC50: 62 nM
[5]
  EC50: 21 nM
[6]
  GI50: 17 nM
[7]
  GI50: 25 nM
[8]
  EC50: 57 nM
